Experimental data reported in patent US20150065524A1, “KINASE INHIBITOR POLYMORPHS” (Intellikine LLC, priority 2011, published 2015).

Key:
Format in all cases: physicochemical
[1] = Stability testing: storage at 40° C./75% RH or 25° C./97% RH, reanalysis by XRPD; conditions: for Solid form by XRPD after storage at 40° C./75% RH: 7 days, samples of entries 38, 39, 41, 42; for Solid form after storage at 40° C./75% relative humidity: 8 days storage; for Stability at 40° C./75% RH: salts of Formula I, salt screening; for Stability at 40° C./75% RH, reanalysis by XRPD: stored at 40° C./75% RH, after 7 days, 21 days and 35 days
Protocol: A sample of J00439 was stored at 40° C./75% RH. […] Thus this solid form (which will be referred to as Form A) was stable to accelerated stability testing conditions. Note that some variations in XRPD peak intensity were observed over time.
Samples of entries 38, 39, 41, and 42 were stored at 40° C./75% RH. […]

[2] = Drying of the solids under vacuum, reanalysis by XRPD; conditions: for Solid form after drying: vacuum oven at 40° C. overnight, XRPD and 1H NMR
Protocol: A sample of each solid was dried in a vacuum oven at 40° C. overnight, then the samples were reanalysed by XRPD and ^1H NMR.
Approximately 20 mg of compound of Formula I (Form A) were weighed into vials, and 150 microliters of solvent system were added. The vials were agitated at 50° C., 5° C., or cycled between room temperature and 50° C. for 4 to 5 days. Solids were isolated by filtration and characterized by XRPD and thermal analysis. From acetone/5% water at 5° C., a hydrate was isolated (see FIGS. 15 and 16). […] From dimethylacetamide (DMA) cycled between room temperature and 50° C. for 5 days, a solvate was isolated (see FIGS. 17 and 18). […] Inclusion of 10% or more water with DMA prevented formation of DMA solvate.

[3] = Gravimetric Vapour Sorption (GVS); conditions: for Weight lost during the first sorption cycle (GVS): from 40 to 90% RH; for Solid form by XRPD after the GVS experiment: material recovered after GVS
Text: There was no hysteresis. The material is non-hygroscopic.
The sample was non-hygroscopic, with only 0.16% weight gain in the first sorption cycle.

Heating to about 100° C. = assay: Heating to about 100° C.
[4] = Stability testing: storage at 40° C./75% RH or 25° C./97% RH, reanalysis by XRPD; conditions: 8 days storage

CC(C)n1nc(-c2ccc3oc(N)nc3c2)c2c(N)ncnc21 [Form E]
Solid form by XRPD after storage at 40° C./75% RH [1]: turned into Form A
Solid form after drying [2]: desolvated to Form A
Weight lost during the first sorption cycle (GVS) ([3]; first sorption cycle): 28 % wt
Solid form by XRPD after the GVS experiment [3]: turned to Form A

CC(C)n1nc(-c2ccc3oc(N)nc3c2)c2c(N)ncnc21 [DMA solvate]
Solid form after heating (Heating to about 100° C.): converted to Form A
Solid form after storage at 40° C./75% relative humidity [1]: converted to Form A
Solid form after storage at 25° C./97% relative humidity [4]: converted to Form A

Maleic acid
Stability at 40° C./75% RH [1]: Stable for 7 days

CC(C)n1nc(-c2ccc3oc(N)nc3c2)c2c(N)ncnc21 [Form B]
Solid form by XRPD after storage at 40° C./75% RH [1]: turned into Form A
Solid form after drying [2]: only partially desolvated
Weight lost during the first sorption cycle (GVS) ([3]; first sorption cycle): 28 % wt
Solid form by XRPD after the GVS experiment [3]: desolvated to Form A

Ethane sulfonic acid
Stability at 40° C./75% RH [1]: Deliquescent

1,2-Ethane disulfonic acid
Stability at 40° C./75% RH [1]: Stable for 7 days

CC(C)n1nc(-c2ccc3oc(N)nc3c2)c2c(N)ncnc21 [hydrate]
Solid form after heating (Heating to about 100° C.): converted to Form A
Solid form after storage at 40° C./75% relative humidity [1]: converted to Form A
Solid form after vacuum drying ([2]; vacuum drying): converted to Form A
Solid form by XRPD after the GVS experiment [3]: converted to Form A
Solid form after storage at 25° C./97% relative humidity [4]: converted to Form A

Cc1ccc(S(=O)(=O)O)cc1 [p-Toluene sulfonic acid]
Stability at 40° C./75% RH [1]: Changes pattern after 3 days,

Methane sulfonic acid
Stability at 40° C./75% RH [1]: Deliquescent

CC(C)n1nc(-c2ccc3oc(N)nc3c2)c2c(N)ncnc21 [Form A, 5-(4-amino-1-isopropyl-1H-pyrazolo[3,4-d]pyrimidin-3-yl)benzo[d]oxazol-2-Amine]
Stability at 40° C./75% RH, reanalysis by XRPD [1]: stable
Stability at 40° C./75% RH, reanalysis by XRPD ([1]; listed as J00439): still pattern A
Hygroscopicity by GVS [3]: non-hygroscopic
Solid form by XRPD after the GVS experiment [3]: still pattern A
GVS weight change over the whole experiment ([3]; whole GVS experiment): 0.1%

CC(C)n1nc(-c2ccc3oc(N)nc3c2)c2c(N)ncnc21 [Form C]
Solid form by XRPD after storage at 40° C./75% RH [1]: still of Form C
Solid form after drying [2]: stable on drying
Hygroscopicity by GVS [3]: non-hygroscopic
Weight loss on desorption (GVS) ([3]; between 90 and 0% RH): 0.38%
Weight gain in the first sorption cycle (GVS) ([3]; first sorption cycle): 0.16%
Solid form by XRPD after the GVS experiment [3]: still Form C
